Literature values, collected in patent publication US20070162983A1, “Diagnostic and therapeutic use of the human sgpl1 gene and protein for neurodegenerative diseases” (Evotec NeuroSciences GmbH, priority 2003, published 2007).

Columns and labels:
[1] = system: SGPL1; settings: known specific inhibitors of SGPL1 activity; for IC50: read-out: IC50, inhibition of SGPL1 activity
[2] = dogs, estimated (Tosaka et al., Stroke 2001)

Compound	IC50 [1] [µM]	other results
CCCC[C@H](C)[C@H](O)[C@H](O)C[C@H](C)C[C@@H](O)CCCC[C@@H](O)C[C@H](O)[C@H](C)N	20	
2-vinyl analog of sphinganine phosphate	2.4	
CCCCCCCCCCCCCCC[C@H](O)[C@@H](N)COP(=O)(O)O (single isomer, unassigned) [2D,3L-isomer of sphinganine phosphate]		Ki ([1]; read-out: Ki, inhibition of SGPL1 activity): 9.7 µM
CCCCCCCCCCCCC/C=C/[C@@H](O)[C@@H](N)COP(=O)(O)O [S1P, sphingosine-1-phosphate]		half-life in cerebrospinal fluid (CSF) [2]: approximately 10 minutes
